Test results: article PMC7957578, “N-(1,3,4-Oxadiazol-2-yl)Benzamides as Antibacterial Agents against Neisseria gonorrhoeae” (International Journal of Molecular Sciences, 2021)
Values after ≈ are worked out from the molar mass of the structure shown. Like-named read-outs stand apart in the source and are kept apart here.

What was measured:
[1] = test system: N. gonorrhoeae strain 181; experiment: MIC by broth microdilution against N. gonorrhoeae strain 181; type: cell-based, Neisseria gonorrhoeae; conditions: Neisseria gonorrhoeae; N. gonorrhoeae strain 181; read-out: MIC
Procedure: (§1) Briefly, bacteria were grown overnight on chocolate agar II at 37° C in the presence of 5% CO2. Afterwards, a bacterial suspension equivalent to 1.0 McFarland standard was prepared and diluted in brucella broth supplemented with yeast extract, neopeptone, hematin, pyridoxal, and NAD. Test agents were added in the first row of the 96-well plates and serially diluted along the plates. Plates were then incubated at 37° C in the presence of 5% CO2 for 24 h. […] Plates were then incubated at 37 ° C in the presence of 5% CO2 for 24 h. The MBC was categorized as the lowest concentration that reduced bacterial growth by 99.9% [45, 46, 47].

N. gonorrhoeae 165 = experiment: MIC/MBC against N. gonorrhoeae clinical isolate 165; type: cell-based; conditions: Neisseria gonorrhoeae
Procedure: as §1

N. gonorrhoeae 166 = experiment: MIC/MBC against N. gonorrhoeae clinical isolate 166; type: cell-based; conditions: Neisseria gonorrhoeae
Procedure: as §1

N. gonorrhoeae 194 = experiment: MIC/MBC against N. gonorrhoeae clinical isolate 194; type: cell-based; conditions: Neisseria gonorrhoeae
Procedure: as §1

N. gonorrhoeae 197 = experiment: MIC/MBC against N. gonorrhoeae clinical isolate 197; type: cell-based; conditions: Neisseria gonorrhoeae
Procedure: as §1

N. gonorrhoeae 200 = experiment: MIC/MBC against N. gonorrhoeae clinical isolate 200; type: cell-based; conditions: Neisseria gonorrhoeae
Procedure: as §1

N. gonorrhoeae WHO L = experiment: MIC/MBC against N. gonorrhoeae WHO L reference strain; type: cell-based; conditions: Neisseria gonorrhoeae
Procedure: as §1

[2] = test system: panel drug-resistant pathogenic N. gonorrhoeae strains; experiment: MIC/MBC against a panel of drug-resistant N. gonorrhoeae strains; type: cell-based, Neisseria gonorrhoeae; conditions: MBC the same as or one-fold higher than MIC
S. aureus ATCC 25923 = experiment: MIC/MBC (CLSI broth microdilution) against S. aureus ATCC 25923; type: cell-based; conditions: Staphylococcus aureus, ATCC25923, S. aureus ATCC 25923
Procedure: (§2) The minimum inhibitory concentrations (MICs) of the tested compounds and control drugs, linezolid, vancomycin, and gentamicin, were determined using the broth microdilution method according to the guidelines outlined by the Clinical and Laboratory Standards Institute (CLSI) against clinically relevant bacterial (Staphylococcus aureus, MRSA, Escherichia coli, Enterococcus faecalis and Enterococcus faecium strains. S. aureus, MRSA, E. coli, Enterococcus faecalis and Enterococcus faecium were grown aerobically overnight on tryptone soy agar (TSA) plates at 37° C. Afterwards, a bacterial solution equivalent to 0.5 McFarland standard was prepared and diluted in cation-adjusted Mueller–Hinton broth (CAMHB) (for S. aureus, MRSA, and E. coli) to achieve a bacterial concentration of about 5 × 10^5 CFU/mL. Enterococcus faecalis and Enterococcus faecium 0.5 McFarland standard solution was diluted in tryptone soy broth (TSB) to achieve a bacterial concentration of about 5 × 10^5 CFU/mL. Compounds and control drugs were added in the first row of 96-well plates and serially diluted with the corresponding media containing bacteria. Plates were then incubated as previously described. […] The minimum bactericidal concentration (MBC) was tested by spotting 4 µL from wells with no growth onto TSA plates. Plates were incubated at 37 ° C for at least 18 h before recording the MBC. The MBC was categorized as the lowest concentration that reduced bacterial growth by 99.9% [45, 46, 47].

MRSA USA300 = experiment: MIC/MBC (CLSI broth microdilution) against MRSA USA300; type: cell-based, methicillin-resistant Staphylococcus aureus; conditions: Staphylococcus aureus, MRSA USA300
Procedure: as §2

E. faecalis ATCC 29212 = experiment: MIC/MBC (CLSI broth microdilution) against E. faecalis ATCC 29212; type: cell-based; conditions: Enterococcus faecalis, ATCC29212, E. faecalis ATCC 29212
Procedure: as §2

VRE. faecalisATCC 51575 = experiment: MIC/MBC (CLSI broth microdilution) against VRE faecalis ATCC 51575; type: cell-based; conditions: Enterococcus, VRE faecalis ATCC 51575
Procedure: as §2

VRE. faecalis ATCC 51299 = experiment: MIC/MBC (CLSI broth microdilution) against VRE faecalis ATCC 51299; type: cell-based; conditions: Enterococcus, VRE faecalis ATCC 51299
Procedure: as §2

VRE. faecium ATCC 700221 = experiment: MIC/MBC (CLSI broth microdilution) against VRE faecium ATCC 700221; type: cell-based; conditions: Enterococcus, VRE faecium ATCC 700221
Procedure: as §2

[3] = test system: L. monocytogenes ATCC 19115; experiment: MIC/MBC (CLSI broth microdilution) against L. monocytogenes ATCC 19115; type: cell-based; conditions: Listeria monocytogenes, ATCC19115, L. monocytogenes ATCC 19115
[4] = test system: E. coli BW25113 (wild-type strain); experiment: MIC/MBC (CLSI broth microdilution) against E. coli BW25113 wild type; type: cell-based, Escherichia coli; conditions: E. coli BW25113 wild-type strain
Procedure: as §2

[5] = test system: E. coli JW55031 (TolC Mutant); experiment: MIC/MBC (CLSI broth microdilution) against E. coli TolC mutant; type: cell-based; conditions: Escherichia coli
Procedure: as §2

N. gonorrhoeae = experiment: MIC against N. gonorrhoeae in presence of fetal bovine serum; type: cell-based; conditions: Neisseria gonorrhoeae, 24 h
[6] = test system: human colorectal cells (Caco-2); experiment: In vitro cytotoxicity, MTS assay; type: cell-based
Procedure: HSGN-237 and -238 were assayed for potential cytotoxicity against a human colorectal adenocarcinoma (Caco-2) cell line, as described previously. Briefly, tested compounds were incubated with caco-2 cells for 24 and 48 h. Then, the cells were incubated with MTS (3-(4,5-dimethylthiazol-2-yl)-5-(3-carboxymethoxyphenyl)-2-(4-sulfophenyl)-2H-tetrazolium) reagent for 4 h before measuring the absorbance values (OD490).
Figure 2 In vitro cytotoxicity assessment of HSGN-237 and -238 (tested in triplicate) against human colorectal cells (Caco-2) after (A) 24 h, and (B) 48 h, using the 3-(4,5-dimethylthiazol-2-yl)-5-(3-carboxymethoxyphenyl)-2-(4-sulfophenyl)-2H-tetrazolium (MTS) assay. Results are presented as percent viable cells relative to DMSO (negative control). Error bars represent standard deviation values. A two-way ANOVA, with post hoc Dunnet’s multiple comparisons test, determined the statistical difference between the values obtained for the compound and DMSO. Asterisks denote statistically significant differences between treatments of cells with either HSGN-237 or -238 as compared to DMSO-treated cells. The experiment was repeated 3 independent times.

[7] = test system: tested bacterial strains (Table 3); experiment: MBC versus MIC against the panel of Gram-positive and Gram-negative pathogens; type: cell-based; conditions: MBCs more than three-fold higher than MICs, strains of Table 3
Procedure: While the focus of these new N-(1,3,4-oxadiazol-2-yl)benzamides is towards N. gonorrhoeae, we proceeded to test their activity against other Gram-positive and Gram-negative pathogens. Intriguingly, HSGN-235, HSGN-237, and HSGN-238 had potent activity against the tested Gram-positive bacterial pathogens. For instance, all three compounds had potent activity against the staphylococcal strains, with MICs ranging from 0.25 to 1 µg/mL (Table 3). Furthermore, HSGN-235, HSGN-237, and HSGN-238 maintained potent activity against clinically relevant Gram-positive bacterial pathogens such as vancomycin-resistant enterococci (VRE) and Listeria monocytogenes (Table 3). Additionally, we moved to test if HSGN-235, HSGN-237, and HSGN-238 were active against other Gram-negative bacterial pathogens. […] This lack of activity against Gram-negative bacteria appears to be due to HSGN-235, HSGN-237, and HSGN-238 being a substrate for efflux.
The minimum inhibitory concentrations (MICs) of the tested compounds and control drugs, linezolid, vancomycin, and gentamicin, were determined using the broth microdilution method according to the guidelines outlined by the Clinical and Laboratory Standards Institute (CLSI) against clinically relevant bacterial (Staphylococcus aureus, MRSA, Escherichia coli, Enterococcus faecalis and Enterococcus faecium strains. S. aureus, MRSA, E. coli, Enterococcus faecalis and Enterococcus faecium were grown aerobically overnight on tryptone soy agar (TSA) plates at 37° C. Afterwards, a bacterial solution equivalent to 0.5 McFarland standard was prepared and diluted in cation-adjusted Mueller–Hinton broth (CAMHB) (for S. aureus, MRSA, and E. coli) to achieve a bacterial concentration of about 5 × 10^5 CFU/mL. Enterococcus faecalis and Enterococcus faecium 0.5 McFarland standard solution was diluted in tryptone soy broth (TSB) to achieve a bacterial concentration of about 5 × 10^5 CFU/mL. Compounds and control drugs were added in the first row of 96-well plates and serially diluted with the corresponding media containing bacteria. […]

Caco-2 bilayers = experiment: Caco-2 bidirectional permeability assay; type: in vitro ADME, human; conditions: Caco-2 permeability classification
Description: Oral bioavailability is a highly important consideration when developing bioactive molecules as therapeutic agents. A critical factor of oral bioavailability is human intestinal absorption. The Caco-2 bidirectional permeability assay is the most widely used in vitro model for predicting if a bioactive molecule can have adequate systemic absorption. Thus, we selected HSGN-238 to act as a model to analyze the drug-like properties of newly synthesized N-(1,3,4-oxadiazol-2-yl)benzamides.
Assay and data analysis were performed by Eurofins Panlabs (MO, USA) according to a previously reported protocol. The apparent permeability coefficient (Papp) of the tested agents was calculated using the equation below: Papp(cm/s)=VR∗CR,end/Δt∗1/A∗(CD,mid−CR,mid), where VR is the volume of the receiver chamber. CR,end is the concentration of the test compound in the receiver chamber at the end time point, Δt is the incubation time, and A is the surface area of the cell monolayer. CD,mid is the calculated mid-point concentration of the test compound in the donor side, which is the mean value of the donor concentration at 0 minutes and the donor concentration at the end time point. CR,mid is the mid-point concentration of the test compound in the receiver side, which is one half of the receiver concentration at the end time point. Concentrations of the test compound were expressed as peak areas of the test compound.

Work on O=C(Nc1nnc(-c2cccc(F)c2)o1)c1ccc(OC(F)(F)F)cc1 [HSGN-237, N-(5-(3-Fluorophenyl)-1,3,4-oxadiazol-2-yl)-4-(trifluoromethoxy)benzamide] yielded an MIC [1] of 0.125 µg/mL (≈ 0.34 µM), an MBC (N. gonorrhoeae 165) of 0.125 µg/mL (≈ 0.34 µM) and an MIC (N. gonorrhoeae 165) of 0.06 µg/mL (≈ 0.163 µM). It also gave an MBC (N. gonorrhoeae 166) of 0.06 µg/mL (≈ 0.163 µM), an MIC (N. gonorrhoeae 166) of 0.06 µg/mL (≈ 0.163 µM) and an MBC (N. gonorrhoeae 194) of 0.06 µg/mL (≈ 0.163 µM). The MIC (N. gonorrhoeae 194) was 0.03 µg/mL (≈ 0.0817 µM), the MBC (N. gonorrhoeae 197) was 0.06 µg/mL (≈ 0.163 µM) and the MIC (N. gonorrhoeae 197) was 0.03 µg/mL (≈ 0.0817 µM). The MBC (N. gonorrhoeae 200) was 0.06 µg/mL (≈ 0.163 µM), the MIC (N. gonorrhoeae 200) was 0.06 µg/mL (≈ 0.163 µM) and the MBC (N. gonorrhoeae WHO L) was 0.06 µg/mL (≈ 0.163 µM). For the same molecule, the MIC (N. gonorrhoeae WHO L) was 0.06 µg/mL (≈ 0.163 µM), the “type of activity from MBC versus MIC” value [2] was “bactericidal activity” and the MBC (S. aureus ATCC 25923; read-out: MBC) was greater than 64 µg/mL. It also gave an MIC (S. aureus ATCC 25923; read-out: MIC) of 0.25 µg/mL (≈ 0.681 µM), an MBC (MRSA USA300; read-out: MBC) of 32 µg/mL (≈ 87.1 µM) and an MIC (MRSA USA300; read-out: MIC) of 0.25 µg/mL (≈ 0.681 µM). It also gave an MBC (E. faecalis ATCC 29212; read-out: MBC) greater than 64 µg/mL, an MIC (E. faecalis ATCC 29212; read-out: MIC) of 1 µg/mL (≈ 2.72 µM) and an MBC (VRE. faecalisATCC 51575; read-out: MBC) greater than 64 µg/mL. The MIC (VRE. faecalisATCC 51575; read-out: MIC) was 1 µg/mL (≈ 2.72 µM), the MBC (VRE. faecalis ATCC 51299; read-out: MBC) was 16 µg/mL (≈ 43.6 µM) and the MIC (VRE. faecalis ATCC 51299; read-out: MIC) was 0.5 µg/mL (≈ 1.36 µM). It also gave an MBC (VRE. faecium ATCC 700221; read-out: MBC) of 8 µg/mL (≈ 21.8 µM), an MIC (VRE. faecium ATCC 700221; read-out: MIC) of 0.5 µg/mL (≈ 1.36 µM) and an MBC ([3]; read-out: MBC) of 64 µg/mL (≈ 174 µM). For the same molecule, the MIC ([3]; read-out: MIC) was 0.5 µg/mL (≈ 1.36 µM), the MIC [4] was greater than 8 µg/mL and the MBC ([4]; Escherichia coli, read-out: MBC) was greater than 8 µg/mL. It also gave an MIC ([4]; Escherichia coli, read-out: MIC) greater than 8 µg/mL, an MBC [5] of 16 µg/mL (≈ 43.6 µM) and an MIC [5] of 0.25 µg/mL (≈ 0.681 µM). For the same molecule, the MIC (N. gonorrhoeae; 1% FBS added to the media) was 0.125 µg/mL, the MIC (N. gonorrhoeae; 5% FBS added to the media) was 1 µg/mL and the MIC (N. gonorrhoeae; 10% FBS added to the media) was 4 µg/mL. The non-toxic concentration ([6]; Caco-2 cells, 24 and 48 h, MTS assay) was “higher than 64 µg/mL”, the “non-toxic concentration relative to MIC against N. gonorrhoeae” value ([6]; Caco-2 non-toxic concentration versus corresponding MIC) was 512 times and the “type of activity from MBC versus MIC” value [7] was “bacteriostatic agents”.
With CNC(=C[N+](=O)[O-])NCCSCc1ccc(CN(C)C)o1 [Ranitidine] the “Notes (permeability class)” value (Caco-2 bilayers) was “Low Permeability Control”.
